Experimental findings from US7291612B2, “Immunomodulatory compounds” (Active Biotech A.B., priority 2002, dated 2007) are described below.

For one experiment, the target named is T1, CD80-CD28 interaction (Homo sapiens, UniProt P33681).
T1 construct: mouse Fab fragment (fusion partner)
T1 sequence (P33681 35-242 limits assumed): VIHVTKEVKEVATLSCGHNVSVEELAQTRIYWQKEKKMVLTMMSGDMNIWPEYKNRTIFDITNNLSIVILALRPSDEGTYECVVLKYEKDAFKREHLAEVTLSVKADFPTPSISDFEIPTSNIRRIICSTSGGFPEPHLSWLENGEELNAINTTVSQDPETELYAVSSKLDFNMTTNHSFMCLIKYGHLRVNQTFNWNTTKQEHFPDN
The experiment in a line: cell free Homogenous Time Resolved Fluorescence (HTRF) assay, inhibition of the CD80-CD28 interaction. Type of experiment: binding. The settings on record: 4 hours at room temperature, read-out: Activity (EC50 in summary form). The method, then:
The examples described above were tested in a cell free Homogenous Time Resolved Fluorescence (HTRF) assay to determine their activity as inhibitors of the CD80-CD28 interaction.
In the assay, europium and allophycocyanin (APC) are associated with CD28 and CD80 indirectly (through antibody linkers) to form a complex, which brings the europium and APC into close proximity to generate a signal. The complex comprises the following six proteins: fluorescent label 1, linker antibody 1, CD28 fusion protein, CD80 fusion protein, linker antibody 2, and fluorescent label 2. The table below describes these reagents in greater detail.
On formation of the complex, europium and APC are brought into proximity and a signal is generated.
Non-specific interaction was measured by substituting a mouse Fab fragment (C215) for the CD80 mouse Fab fragment fusion protein (1.9 μg/ml). The assay was carried out in black 384 well plates in a final volume of 30 μl. Assay buffer: 50 mM Tris-HCl, 150 mM NaCl pH7.8, containing 0.1% BSA (w/v) added just prior to use.
Compounds were added to the above reagents in a concentration series ranging between 100 μM-1.7 nM. The reaction was incubated for 4 hours at room temperature. Dual measurements were made using a Wallac Victor 1420 Multilabel Counter. First measurement: excitation 340 nm, emission 665 nm, delay 50 μs, window time 200 μs. second measurement: excitation 340 nm, emission 615 nm, delay 50 μs, window time 200 μs. Counts were automatically corrected for fluorescence crossover, quenching and background.
In general terms: Time-resolved FRET reads energy transfer from a long-lived donor to a nearby acceptor.
For orientation: EC50 means the concentration needed to bring the measured effect to its halfway point. Turning to `CN1C(C)(C)CC(NC(=O)c2ccc(-n3nc4c5cccc(F)c5[nH]cc-4c3=O)cc2)CC1(C)C` [Example 115], the EC50 was < 1000 nM.

`CN(C)CCCNC(=O)c1cccc(-n2nc3c4cccc(F)c4[nH]cc-3c2=O)c1` [Example 54]: the EC50 was in the range of 1000 to 10000 nM.

For `CN1C(C)(C)CC(NC(=O)c2ccc(-n3nc4c5ccccc5scc-4c3=O)cc2)CC1(C)C` [Example 168, 4-(3-oxothiochromeno[4,3-c]pyrazol-2(3H)-yl)-N-1,2,2,6,6-pentamethylpiperidin-4-ylbenzamide], the 50% effective concentration (EC50) was 1000 to 10000 nM.

Consider `CN(CCCNC(=O)c1ccc(-n2nc3c4cccc(F)c4[nH]cc-3c2=O)cc1)c1ccccc1` [Example 106], for which the EC50 was < 1000 nM.

For the compound `O=C(CCl)Nc1ccc(-n2nc3c4cccc(F)c4[nH]cc-3c2=O)cc1` [Example 9], the EC50 fell in the range of 1000 to 10000 nM.

As to `CC(=O)N1CCC(C(=O)Nc2ccc(-n3nc4c5cccc(F)c5[nH]cc-4c3=O)cc2)CC1` [Example 20], the EC50 lay in the range of 1000 to 10000 nM.

Consider `CC1CCCCN1CCCNC(=O)c1ccc(-n2nc3c4cccc(F)c4[nH]cc-3c2=O)cc1` (centres unmarked) [Example 112], for which the EC50 was < 1000 nM.

For `CN(C)CCOC(=O)Nc1ccc(-n2nc3c4cccc(F)c4[nH]cc-3c2=O)cc1` [Example 152], the EC50 is < 1000 nM.

`CN1CCCC1CCNCC(=O)Nc1ccc(-n2nc3c4cccc(F)c4[nH]cc-3c2=O)cc1` (centres unmarked) [Example 39]: the EC50 was < 1000 nM.

Consider `O=C(NCCCN1CCCC1)c1ccc(-n2nc3c4ccccc4[nH]cc-3c2=O)cc1` [Example 91], for which the EC50 fell in the range of 1000 to 10000 nM.

With `CCCC(C)C(=O)Nc1ccc(-n2nc3c4ccccc4[nH]cc-3c2=O)cc1` (centres unmarked) [Example 44], the EC50 was > 10000 nM.

Regarding `O=C(Nc1ccc(-n2nc3c4cccc(F)c4[nH]cc-3c2=O)cc1)c1ccco1` [Example 10], the EC50 is > 10000 nM.

As for `CN(C)CCCCNC(=O)c1cccc(-n2nc3c4cccc(F)c4[nH]cc-3c2=O)c1` [Example 58], the EC50 was in the range of 1000 to 10000 nM.

In the case of `COC(=O)CCCCC(=O)Nc1ccc(-n2nc3c4cccc(F)c4[nH]cc-3c2=O)cc1` [Example 6, 5-[4-(6-Fluoro-3-oxo-3,5-dihydro-pyrazolo[4,3-c]quinolin-2-yl)phenylcarbamoyl]-pentanoic acid methyl ester], the EC50 is < 1000 nM.

On to `CCN(CC)C(=O)c1ccc(-n2nc3c4cccc(F)c4[nH]cc-3c2=O)cc1` [Example 78], for which the EC50 was 1000 to 10000 nM.

Turning to `CSCCCNC(=O)c1ccc(-n2nc3c4cccc(F)c4[nH]cc-3c2=O)cc1` [Example 128], the EC50 was in the range of 1000 to 10000 nM.

Turning to `O=C(NCCCCN1CCCC1)c1ccc(-n2nc3c4ccccc4[nH]c(C4CC4)c-3c2=O)cc1` [Example 104], the EC50 was < 1000 nM.

With `O=C(NCCCCN1CCCC1)c1ccc(-n2nc3c4ccccc4scc-3c2=O)cc1` [Example 167, N-(pyrrolidin-1-yl-butyl)-4-(3-oxothiochromeno[4,3-c]pyrazol-2(3H)-yl)benzamide], the EC50 is > 10000 nM.

In the case of `COCC(=O)Nc1ccc(-n2nc3c4cccc(F)c4[nH]cc-3c2=O)cc1` [Example 27], the EC50 fell in the range of 1000 to 10000 nM.

With `O=C(Nc1ccc(-n2nc3c4cccc(F)c4[nH]cc-3c2=O)cc1)c1ncoc1-c1ccccc1` [Example 15], the EC50 lay within 1000 to 10000 nM.

For the compound `CN(C)CCCNC(=O)c1ccc(-n2nc3c4cccc(F)c4[nH]c(C4CC4)c-3c2=O)cc1` [Example 132], the EC50 was < 1000 nM.

Turning to `O=C(Nc1ccc(-n2nc3c4cccc(F)c4[nH]cc-3c2=O)cc1)c1ccc(N2CCOCC2)nc1` [Example 11], the EC50 is > 10000 nM.

For the compound `CCNC(=O)c1cccc(-n2nc3c4cccc(F)c4[nH]cc-3c2=O)c1` [Example 51, N-Ethyl-3-(6-fluoro-3-oxo-3,5-dihydro-pyrazolo[4,3-c]-quinolin-2-yl)-benzamide], the EC50 is 1000 to 10000 nM.

As for `O=C(NCCCCN1CCCC1)c1cccc(-n2nc3c4cccc(F)c4[nH]cc-3c2=O)c1` [Example 57], the EC50 was in the range of 1000 to 10000 nM.

`CCN(CC)CCCCNC(=O)c1ccc(-n2nc3c4cccc(F)c4[nH]cc-3c2=O)cc1Cl` [Example 102]: the EC50 lay in the range of 1000 to 10000 nM.

Consider `O=C(NCCC1=CCCCC1)c1ccc(-n2nc3c4cccc(F)c4[nH]cc-3c2=O)cc1` [Example 75], for which the EC50 was in the range of 1000 to 10000 nM.

For `CN(C)CCCCNC(=O)Nc1ccc(-n2nc3c4cccc(F)c4[nH]cc-3c2=O)cc1` [Example 163], the EC50 is < 1000 nM.

As to `COCCNC(=O)c1cccc(-n2nc3c4cccc(F)c4[nH]cc-3c2=O)c1` [Example 59], the EC50 is 1000 to 10000 nM.

As to `O=C(Cc1c(Cl)cccc1Cl)Nc1ccc(-n2nc3c4cccc(F)c4[nH]cc-3c2=O)cc1` [Example 21], the EC50 was 1000 to 10000 nM.

Regarding `CN(C)CCCN(C)C(=O)c1cccc(-n2nc3c4cccc(F)c4[nH]cc-3c2=O)c1` [Example 53], the EC50 was > 10000 nM.

`CCCC(CCC)C(=O)Nc1ccc(-n2nc3c4cccc(F)c4[nH]cc-3c2=O)cc1` [Example 5, 2-Propyl-pentanoic acid [4-(6-fluoro-3-oxo-3,5-dihydro-pyrazolo[4,3-c]quinolin-2-yl)-phenyl]-amide]: the EC50 is > 10000 nM.

In the case of `O=C(NCCCN1CCCC1)c1ccc(-n2nc3c4cccc(F)c4[nH]c(C4CC4)c-3c2=O)cc1` [Example 141], the EC50 is < 1000 nM.

For the compound `O=C(NCCCCN1CCCC1)c1ccc(-n2nc3c4cccc(F)c4[nH]c(C4CC4)c-3c2=O)cc1` [Example 130], the EC50 is < 1000 nM.

Turning to `O=C(COCc1ccccc1)Nc1ccc(-n2nc3c4cccc(F)c4[nH]cc-3c2=O)cc1` [Example 8], the EC50 was in the range of 1000 to 10000 nM.

As to `CN(C)c1ccc(CNCC(=O)Nc2ccc(-n3nc4c5cccc(F)c5[nH]cc-4c3=O)cc2)cc1` [Example 32], the EC50 is > 10000 nM.

Consider `COC(=O)Nc1ccc(-n2nc3c4ccccc4[nH]c(C4CC4)c-3c2=O)cc1` [Example 153], for which the EC50 was in the range of 1000 to 10000 nM.

On to `CCC(C)C(=O)Nc1ccc(-n2nc3c4cccc(F)c4[nH]cc-3c2=O)cc1` (centres unmarked) [Example 1, N-[4-(6-Fluoro-3-oxo-3,5-dihydropyrazolo[4,3-c]quinolin-2-yl)-phenyl]-2-methyl-butyramide], for which the EC50 is < 1000 nM.

For `CN1C(C)(C)CC(NC(=O)c2ccc(-n3nc4c5cccc(F)c5scc-4c3=O)cc2)CC1(C)C` [Example 173, 4-(6-fluoro-3-oxothiochromeno[4,3-c]pyrazol-2(3H)-yl)-N-1,2,2,6,6-pentamethylpiperidin-4-ylbenzamide], the EC50 is < 1000 nM.

In the case of `O=C(NCCCN1CCN(Cc2c(F)cccc2Cl)CC1)c1ccc(-n2nc3c4cccc(F)c4[nH]c(C4CC4)c-3c2=O)cc1` [Example 137], the concentration giving a half-maximal response (EC50) was < 1000 nM.

`O=C(NCCCn1ccnc1)c1ccc(-n2nc3c4cccc(F)c4[nH]cc-3c2=O)cc1` [Example 122]: the EC50 is < 1000 nM.

For `CCN(CC)CCCCNC(=O)c1ccc(-n2nc3c4cccc(F)c4[nH]c(C4CC4)c-3c2=O)cc1` [Example 135], the EC50 is < 1000 nM.

On to `CN(C)CC(C)(C)CNC(=O)c1ccc(-n2nc3c4cccc(F)c4[nH]c(C4CC4)c-3c2=O)cc1` [Example 140], for which the EC50 was < 1000 nM.

On to `O=C(NCCN1CCN(Cc2ccccc2)CC1)c1ccc(-n2nc3c4cccc(F)c4[nH]cc-3c2=O)cc1` [Example 84], for which the EC50 was < 1000 nM.

Turning to `CCCNC(=O)Nc1ccc(-n2nc3c4cccc(F)c4[nH]cc-3c2=O)cc1` [Example 145], the EC50 is < 1000 nM.

For `O=C(NCCCN1CCN(Cc2c(F)cccc2Cl)CC1)c1ccc(-n2nc3c4cccc(F)c4[nH]cc-3c2=O)cc1` [Example 95], the EC50 is < 1000 nM.

`O=C(NCCCN1CCCC1=O)c1ccc(-n2nc3c4cccc(F)c4[nH]cc-3c2=O)cc1` [Example 121]: the EC50 is 1000 to 10000 nM.

In the case of `O=c1c2c[nH]c3ccccc3c-2nn1-c1ccc(NC(=S)NC2CC2)cc1` [Example 160], the EC50 was 1000 to 10000 nM.

Regarding `O=C(NCCc1cccnc1)c1ccc(-n2nc3c4cccc(F)c4[nH]c(C4CC4)c-3c2=O)cc1` [Example 139], the EC50 is > 10000 nM.

For the compound `O=C(NCCN1CCN(Cc2ccccc2)CC1)c1ccc(-n2nc3c4ccccc4[nH]cc-3c2=O)cc1` [Example 94], the EC50 lay within 1000 to 10000 nM.

For the compound `CN(C)CCCNC(=O)Nc1ccc(-n2nc3c4cccc(F)c4[nH]cc-3c2=O)cc1` [Example 161], the EC50 was < 1000 nM.

For the compound `O=C(NCCCN1CCCC1)c1cccc(-n2nc3c4cccc(F)c4[nH]cc-3c2=O)c1` [Example 56], the EC50 is > 10000 nM.

For the compound `O=C(NCCCCN1CCCC1)Nc1ccc(-n2nc3c4cccc(F)c4[nH]cc-3c2=O)cc1` [Example 164], the EC50 was < 1000 nM.

On to `O=C(Nc1ccccc1)Nc1ccc(-n2nc3c4cccc(F)c4[nH]cc-3c2=O)cc1` [Example 147], for which the EC50 fell in the range of 1000 to 10000 nM.

For the compound `CC(C)C(=O)Nc1ccc(-n2nc3c4ccccc4[nH]cc-3c2=O)cc1` [Example 45], the EC50 fell in the range of 1000 to 10000 nM.

The same experiment, now with this note: read-out: EC50.
Regarding `O=C(Nc1ccc(-n2nc3c4cccc(F)c4[nH]cc-3c2=O)cc1)c1ncoc1-c1ccccc1` [Example 15], the EC50 came out at 8000 nM.

`O=C(Cc1c(Cl)cccc1Cl)Nc1ccc(-n2nc3c4cccc(F)c4[nH]cc-3c2=O)cc1` [Example 21]: the EC50 is 1900 nM.
